# Reference: PubChem BioAssay AID2060500 (Molecular Pharmacology Branch, DTP, NCI, 2025)
# Test system: 596521-263-R-J1-PDC complex spheroids, viability % of control
# Test: Anticancer human tumor 596521-263-R-J1-PDC patient-derived soft tissue sarcoma cell line growth inhibition [GQUAD]
# Settings: for IC50: curve of first compound; for viability, T/C: stronger effect = lower value
# Method in brief: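 Multi-cell-type spheroids of tumor cells with HUVEC and mesenchymal stem cells, treated with drug combinations. Concentrations descend in half-log steps from near clinical Cmax, or from 10 microM where Cmax is unknown; viability read-out.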
# [1] = second compound 0.0316 µM, first compound 0.0316 µM
# [2] = second compound 0.0316 µM, first compound 0.1 µM
# [3] = second compound 0.0316 µM, first compound 0.316 µM
# [4] = second compound 0.0316 µM, first compound 1 µM
# [5] = second compound 0.0316 µM, first compound 3.16 µM
# [6] = second compound 0.0316 µM, first compound 10 µM
# [7] = second compound 0.1 µM, first compound 0.0316 µM
# [8] = second compound 0.1 µM, first compound 0.1 µM
# [9] = second compound 0.1 µM, first compound 0.316 µM
# [10] = second compound 0.1 µM, first compound 1 µM
# [11] = second compound 0.1 µM, first compound 3.16 µM
# [12] = second compound 0.1 µM, first compound 10 µM
# [13] = second compound 0.316 µM, first compound 0.0316 µM
# [14] = second compound 0.316 µM, first compound 0.1 µM
# [15] = second compound 0.316 µM, first compound 0.316 µM
# [16] = second compound 0.316 µM, first compound 1 µM
# [17] = second compound 0.316 µM, first compound 3.16 µM
# [18] = second compound 0.316 µM, first compound 10 µM
# [19] = second compound 1 µM, first compound 0.0316 µM
# [20] = second compound 1 µM, first compound 0.1 µM
# [21] = second compound 1 µM, first compound 0.316 µM
# [22] = second compound 1 µM, first compound 1 µM
# [23] = second compound 1 µM, first compound 3.16 µM
# [24] = second compound 1 µM, first compound 10 µM
# [25] = second compound 3.16 µM, first compound 0.0316 µM
# [26] = second compound 3.16 µM, first compound 0.1 µM
# [27] = second compound 3.16 µM, first compound 0.316 µM
# [28] = second compound 3.16 µM, first compound 1 µM
# [29] = second compound 3.16 µM, first compound 3.16 µM
# [30] = second compound 3.16 µM, first compound 10 µM
# [31] = second compound 10 µM, first compound 0.0316 µM
# [32] = second compound 10 µM, first compound 0.1 µM
# [33] = second compound 10 µM, first compound 0.316 µM
# [34] = second compound 10 µM, first compound 1 µM
# [35] = second compound 10 µM, first compound 3.16 µM
# [36] = second compound 10 µM, first compound 10 µM
# 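Further: spheroids exposed to drugs for 7 days before viability reading.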
# 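Wherever viability, T/C is given: 100% = DMSO vehicle control viability.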
structure (smiles),measurement,setting,value
O=C(NO)c1cnc(N2CCN(S(=O)(=O)c3ccc4ccccc4c3)CC2)nc1 + Cc1[nH]c2ccc(F)cc2c1-c1nc2c3cccnc3c3ncccc3c2[nH]1,IC50,second compound 0.0316 µM,< 31.6 nM
same,IC50,second compound 0.1 µM,< 31.6 nM
same,IC50,second compound 0.316 µM,< 31.6 nM
same,IC50,second compound 1 µM,< 31.6 nM
same,IC50,second compound 3.16 µM,< 31.6 nM
same,IC50,second compound 10 µM,< 31.6 nM
same,"viability, T/C",[1],37.6%
same,"viability, T/C",[2],28.2%
same,"viability, T/C",[3],30.4%
same,"viability, T/C",[4],28.5%
same,"viability, T/C",[5],27.2%
same,"viability, T/C",[6],30.4%
same,"viability, T/C",[7],39.1%
same,"viability, T/C",[8],25.8%
same,"viability, T/C",[9],25.8%
same,"viability, T/C",[10],22%
same,"viability, T/C",[11],29.8%
same,"viability, T/C",[12],28%
same,"viability, T/C",[13],38.3%
same,"viability, T/C",[14],29.6%
same,"viability, T/C",[15],29.6%
same,"viability, T/C",[16],27%
same,"viability, T/C",[17],26.9%
same,"viability, T/C",[18],25.5%
same,"viability, T/C",[19],39.1%
same,"viability, T/C",[20],30.3%
same,"viability, T/C",[21],29.2%
same,"viability, T/C",[22],25.8%
same,"viability, T/C",[23],27.6%
same,"viability, T/C",[24],29.3%
same,"viability, T/C",[25],39.5%
same,"viability, T/C",[26],34.5%
same,"viability, T/C",[27],29.7%
same,"viability, T/C",[28],27.1%
same,"viability, T/C",[29],26.1%
same,"viability, T/C",[30],27.7%
same,"viability, T/C",[31],44.2%
same,"viability, T/C",[32],31.5%
same,"viability, T/C",[33],29.5%
same,"viability, T/C",[34],28.9%
same,"viability, T/C",[35],29.6%
same,"viability, T/C",[36],29.8%
CC[C@@]1(O)C(=O)OCc2c1cc1n(c2=O)Cc2cc3c(CN(C)C)c(O)ccc3nc2-1 + Cc1[nH]c2ccc(F)cc2c1-c1nc2c3cccnc3c3ncccc3c2[nH]1,IC50,second compound 0.0316 µM,> 316 nM
same,IC50,second compound 0.1 µM,> 316 nM
same,IC50,second compound 0.316 µM,291 nM
same,IC50,second compound 1 µM,> 316 nM
same,IC50,second compound 3.16 µM,277 nM
same,IC50,second compound 10 µM,> 316 nM
same,"viability, T/C","second compound 0.0316 µM, first compound 0.000999 µM",98.3%
same,"viability, T/C","second compound 0.0316 µM, first compound 0.00316 µM",100%
same,"viability, T/C","second compound 0.0316 µM, first compound 0.00999 µM",84%
same,"viability, T/C",[1],69.5%
same,"viability, T/C","second compound 0.0316 µM, first compound 0.0999 µM",64.3%
same,"viability, T/C",[3],58.7%
same,"viability, T/C","second compound 0.1 µM, first compound 0.000999 µM",103%
same,"viability, T/C","second compound 0.1 µM, first compound 0.00316 µM",99.1%
same,"viability, T/C","second compound 0.1 µM, first compound 0.00999 µM",92.5%
same,"viability, T/C",[7],65.6%
same,"viability, T/C","second compound 0.1 µM, first compound 0.0999 µM",59.6%
same,"viability, T/C",[9],53.5%
same,"viability, T/C","second compound 0.316 µM, first compound 0.000999 µM",96.8%
same,"viability, T/C","second compound 0.316 µM, first compound 0.00316 µM",103%
same,"viability, T/C","second compound 0.316 µM, first compound 0.00999 µM",90.7%
same,"viability, T/C",[13],78.5%
same,"viability, T/C","second compound 0.316 µM, first compound 0.0999 µM",61%
same,"viability, T/C",[15],49%
same,"viability, T/C","second compound 1 µM, first compound 0.000999 µM",103%
same,"viability, T/C","second compound 1 µM, first compound 0.00316 µM",109%
same,"viability, T/C","second compound 1 µM, first compound 0.00999 µM",79.7%
same,"viability, T/C",[19],65.7%
same,"viability, T/C","second compound 1 µM, first compound 0.0999 µM",58%
same,"viability, T/C",[21],51.4%
same,"viability, T/C","second compound 3.16 µM, first compound 0.000999 µM",86.4%
same,"viability, T/C","second compound 3.16 µM, first compound 0.00316 µM",84.1%
same,"viability, T/C","second compound 3.16 µM, first compound 0.00999 µM",81.6%
same,"viability, T/C",[25],67.6%
same,"viability, T/C","second compound 3.16 µM, first compound 0.0999 µM",63.2%
same,"viability, T/C",[27],48.2%
same,"viability, T/C","second compound 10 µM, first compound 0.000999 µM",85.5%
same,"viability, T/C","second compound 10 µM, first compound 0.00316 µM",89.9%
same,"viability, T/C","second compound 10 µM, first compound 0.00999 µM",70.4%
same,"viability, T/C",[31],59.3%
same,"viability, T/C","second compound 10 µM, first compound 0.0999 µM",60.9%
same,"viability, T/C",[33],50.3%
CC(=O)O[C@H]1C(=O)[C@@]2(C)[C@H]([C@H](OC(=O)c3ccccc3)[C@]3(O)C[C@H](OC(=O)[C@H](O)[C@@H](NC(=O)c4ccccc4)c4ccccc4)C(C)=C1C3(C)C)[C@]1(OC(C)=O)CO[C@@H]1C[C@@H]2O + CN(C)c1ccc(Nc2c3ccc(NC(=O)CCN4CCCC4)cc3nc3cc(NC(=O)CCN4CCCC4)ccc23)cc1,IC50,second compound 0.0316 µM,< 31.6 nM
same,IC50,second compound 0.1 µM,< 31.6 nM
same,IC50,second compound 0.316 µM,< 31.6 nM
same,IC50,second compound 1 µM,< 31.6 nM
same,IC50,second compound 3.16 µM,< 31.6 nM
same,IC50,second compound 10 µM,< 31.6 nM
same,"viability, T/C",[1],40.7%
same,"viability, T/C",[2],27.7%
same,"viability, T/C",[3],25.7%
same,"viability, T/C",[4],22.9%
same,"viability, T/C",[5],26.8%
same,"viability, T/C",[6],31.9%
same,"viability, T/C",[7],37.5%
same,"viability, T/C",[8],25.6%
same,"viability, T/C",[9],24.3%
same,"viability, T/C",[10],28%
same,"viability, T/C",[11],23.1%
same,"viability, T/C",[12],26.6%
same,"viability, T/C",[13],37.2%
same,"viability, T/C",[14],27.4%
same,"viability, T/C",[15],25.2%
same,"viability, T/C",[16],29.2%
same,"viability, T/C",[17],29.3%
same,"viability, T/C",[18],25.3%
same,"viability, T/C",[19],38.3%
same,"viability, T/C",[20],29%
same,"viability, T/C",[21],26.5%
same,"viability, T/C",[22],25.2%
same,"viability, T/C",[23],28.3%
same,"viability, T/C",[24],27.5%
same,"viability, T/C",[25],35.6%
same,"viability, T/C",[26],32.1%
same,"viability, T/C",[27],26.9%
same,"viability, T/C",[28],27.1%
same,"viability, T/C",[29],27.3%
same,"viability, T/C",[30],28.2%
same,"viability, T/C",[31],34.3%
same,"viability, T/C",[32],21.7%
same,"viability, T/C",[33],21.4%
same,"viability, T/C",[34],21.5%
same,"viability, T/C",[35],21.6%
same,"viability, T/C",[36],24.9%
